From patent US5939413A, “Piperazine derivatives” (Fujisawa Pharmaceutical Co., Ltd., priority 1995, dated 1999)
Counter-ions that a name gives are not always drawn.

biological target: T1, h-NK1 receptors (Homo sapiens, UniProt P25103); test: 125I-BH-Substance P binding to h-NK1 receptors; details: read-out: inhibition rate of 125I-BH-Substance P binding to h-NK1 receptors
T1 construct: expressed in transfected cells; host or cells: CHO cells, permanently expressing; crude membranes
Experimental: (a) Crude CHO cell membrane preparation
CHO cells permanently expressing h-NK1 receptors were harvested and homogenized with a Dounce homogenizer at 4° C. in a buffer (0.25 M sucrose, […] Tris-HCl pH 7.4, 10 mM MgCl2, 1 mM EDTA, 5 μg/ml p-APMSF). The homogenate was centrifuged (500×g, 10 minutes), and the pellet was resuspended in the same buffer, homogenized, and centrifuged. The two supernatants were combined and centrifuged (100,000×g, 1 hour). The crude cell membranes thus isolated were resuspended in buffer (25 mM Tris-HCl pH 7.4, 10 mM MgCl2, 1 mM EDTA, 5 μg/ml p-APMSF) and stored at -80° C. until use.
At the end of the incubation period, the content was quickly filtered over a Wahtman GF/C glass filter (pretreated with 0.1% polyethylene imine for 3 hours prior to use) under aspiration. Each of the filters was then washed four times with 5 ml of buffer (50 mM Tris-HCl pH 7.4, 5 mM MnCl2). […] All data presented are specific binding defined as that displaceable by 3 μM unlabeled Substance P.

T1 sequence (P25103 whole entry): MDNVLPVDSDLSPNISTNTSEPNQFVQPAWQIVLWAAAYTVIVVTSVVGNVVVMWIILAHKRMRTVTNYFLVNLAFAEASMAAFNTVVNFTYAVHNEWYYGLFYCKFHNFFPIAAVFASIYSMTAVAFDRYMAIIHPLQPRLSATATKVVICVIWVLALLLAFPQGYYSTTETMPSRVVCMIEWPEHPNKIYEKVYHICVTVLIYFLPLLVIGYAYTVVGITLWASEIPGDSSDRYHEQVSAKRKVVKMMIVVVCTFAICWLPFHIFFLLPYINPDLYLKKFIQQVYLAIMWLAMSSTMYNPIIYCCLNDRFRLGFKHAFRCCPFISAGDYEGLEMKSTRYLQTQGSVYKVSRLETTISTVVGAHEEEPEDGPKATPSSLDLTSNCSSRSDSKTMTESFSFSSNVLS

Row | SMILES | inhibition at 0.1 µg/mL
1 | CN1CCCN(C(=O)CN2C[C@@H](Cc3c[nH]c4ccccc34)N(C(=O)c3cc(C(F)(F)F)cc(C(F)(F)F)c3)CC2=O)CC1 [Example 6, (5R)-4-[3,5-bis(trifluoromethyl)benzoyl]-5-(1H-indol-3-ylmethyl)-1-[(4-methyl-1-homopiperazinyl)carbonylmethyl]-piperazin-2-one hydrochloride] | > 90%

same assay, conditions: test compound at 0.1 μg/ml; crude membranes of CHO cells expressing h-NK1 receptors; read-out: inhibition rate of 125I-BH-Substance P binding to h-NK1 receptors

Row | SMILES | inhibition at 0.1 µg/mL
2 | CCOC(=O)CCCN1C[C@@H](Cc2c[nH]c3ccccc23)N(C(=O)c2cc(C(F)(F)F)cc(C(F)(F)F)c2)CC1=O [Example 2, (5R)-4-[3,5-bis(trifluoromethyl)benzoyl]-1-[3-(ethoxycarbonyl)propyl]-5-(1H-indol-3-ylmethyl)piperazin-2-one] | > 90%
3 | CCOC(=O)CN1C[C@@H](Cc2c[nH]c3ccccc23)N(C(=O)c2cc(C(F)(F)F)cc(C(F)(F)F)c2)CC1=O [Example 3, (5R)-4-[3,5-bis(trifluoromethyl)benzoyl]-1-(ethoxycarbonylmethyl)-5-(1H-indol-3-ylmethyl)piperazin-2-one] | > 90%
4 | NC(=O)CN1C[C@@H](Cc2c[nH]c3ccccc23)N(C(=O)c2cc(C(F)(F)F)cc(C(F)(F)F)c2)CC1=O [Example 5, (5R)-4-[3,5-bis(trifluoromethyl)benzoyl]-1-(carbamoylmethyl)-5-(1H-indol-3-ylmethyl)piperazin-2-one] | > 90%
5 | O=C(CN1C[C@@H](Cc2c[nH]c3ccccc23)N(C(=O)c2cc(C(F)(F)F)cc(C(F)(F)F)c2)CC1=O)N1CCC(N2CCCCC2)CC1 [Example 7-1] | > 90%
6 | O=C(CCCN1C[C@@H](Cc2c[nH]c3ccccc23)N(C(=O)c2cc(C(F)(F)F)cc(C(F)(F)F)c2)CC1=O)N1CCC(N2CCCCC2)CC1 [Example 7-3] | > 90%
7 | CN1CCCN(C(=O)CCCN2C[C@@H](Cc3c[nH]c4ccccc34)N(C(=O)c3cc(C(F)(F)F)cc(C(F)(F)F)c3)CC2=O)CC1 [Example 7-4] | > 90%
